What was measured:
Parameters in all cases: scale not given: the % may be the effect or the level left
[1] = molecular target: Casein kinase I isoform alpha (Homo sapiens) (UniProt P48729); assay: Inhibition of human CK1a1 assessed as enzyme activity at 1 uM using KRRRAL[pS]VASLPGL as substrate preincubated for 20 mins followed by [gamma-33P]-ATP addition and measured after 120 mins by radiometric Hot-SpotSM Kinase assay relative to control
[2] = molecular target: Dual specificity protein kinase CLK4 (Homo sapiens) (UniProt Q9HAZ1); assay: Inhibition of human CLK4 assessed as enzyme activity at 1 uM using myelin basic protein as substrate preincubated for 20 mins followed by [gamma-33P]-ATP addition and measured after 120 mins by radiometric Hot-SpotSM Kinase assay relative to control
Dual specificity protein kinase CLK4 (Homo sapiens), sequence (Q9HAZ1 whole entry, looked up): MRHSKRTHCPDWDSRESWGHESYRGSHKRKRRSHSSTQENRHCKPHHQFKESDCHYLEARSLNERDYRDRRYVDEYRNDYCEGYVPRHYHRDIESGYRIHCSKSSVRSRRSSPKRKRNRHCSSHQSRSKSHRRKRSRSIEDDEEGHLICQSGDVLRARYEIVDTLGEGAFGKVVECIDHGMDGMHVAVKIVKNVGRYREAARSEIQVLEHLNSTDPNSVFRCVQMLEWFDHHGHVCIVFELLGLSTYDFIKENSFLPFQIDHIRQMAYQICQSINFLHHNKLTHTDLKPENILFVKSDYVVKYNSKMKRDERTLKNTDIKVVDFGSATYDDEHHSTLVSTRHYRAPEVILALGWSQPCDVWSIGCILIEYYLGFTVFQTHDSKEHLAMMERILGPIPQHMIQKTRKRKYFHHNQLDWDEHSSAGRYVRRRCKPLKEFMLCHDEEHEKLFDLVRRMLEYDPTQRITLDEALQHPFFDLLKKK

[3] = molecular target: Dual specificity protein kinase CLK1 (Homo sapiens) (UniProt P49759); assay: Inhibition of human CLK1 assessed as enzyme activity at 1 uM using myelin basic protein as substrate preincubated for 20 mins followed by [gamma-33P]-ATP addition and measured after 120 mins by radiometric Hot-SpotSM Kinase assay relative to control
Dual specificity protein kinase CLK1 (Homo sapiens), sequence (P49759 whole entry, looked up): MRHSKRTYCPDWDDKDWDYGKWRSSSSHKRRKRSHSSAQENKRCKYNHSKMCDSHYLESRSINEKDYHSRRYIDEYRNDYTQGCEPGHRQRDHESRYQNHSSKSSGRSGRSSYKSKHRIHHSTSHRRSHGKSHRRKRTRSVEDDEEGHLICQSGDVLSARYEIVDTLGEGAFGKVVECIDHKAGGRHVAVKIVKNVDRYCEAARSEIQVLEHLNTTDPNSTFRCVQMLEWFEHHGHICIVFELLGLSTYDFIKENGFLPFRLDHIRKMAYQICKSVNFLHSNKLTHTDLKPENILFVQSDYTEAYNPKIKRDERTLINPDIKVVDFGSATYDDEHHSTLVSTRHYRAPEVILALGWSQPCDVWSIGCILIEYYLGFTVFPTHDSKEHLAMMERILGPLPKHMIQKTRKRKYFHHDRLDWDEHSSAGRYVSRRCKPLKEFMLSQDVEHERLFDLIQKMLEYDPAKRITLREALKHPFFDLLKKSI

[4] = molecular target: Ribosomal protein S6 kinase alpha-2 (Homo sapiens) (UniProt Q15349); assay: Inhibition of human RSK3 assessed as enzyme activity at 1 uM using KKLNRTLSVA as substrate preincubated for 20 mins followed by [gamma-33P]-ATP addition and measured after 120 mins by radiometric Hot-SpotSM Kinase assay relative to control
Ribosomal protein S6 kinase alpha-2 (Homo sapiens), sequence (Q15349 whole entry): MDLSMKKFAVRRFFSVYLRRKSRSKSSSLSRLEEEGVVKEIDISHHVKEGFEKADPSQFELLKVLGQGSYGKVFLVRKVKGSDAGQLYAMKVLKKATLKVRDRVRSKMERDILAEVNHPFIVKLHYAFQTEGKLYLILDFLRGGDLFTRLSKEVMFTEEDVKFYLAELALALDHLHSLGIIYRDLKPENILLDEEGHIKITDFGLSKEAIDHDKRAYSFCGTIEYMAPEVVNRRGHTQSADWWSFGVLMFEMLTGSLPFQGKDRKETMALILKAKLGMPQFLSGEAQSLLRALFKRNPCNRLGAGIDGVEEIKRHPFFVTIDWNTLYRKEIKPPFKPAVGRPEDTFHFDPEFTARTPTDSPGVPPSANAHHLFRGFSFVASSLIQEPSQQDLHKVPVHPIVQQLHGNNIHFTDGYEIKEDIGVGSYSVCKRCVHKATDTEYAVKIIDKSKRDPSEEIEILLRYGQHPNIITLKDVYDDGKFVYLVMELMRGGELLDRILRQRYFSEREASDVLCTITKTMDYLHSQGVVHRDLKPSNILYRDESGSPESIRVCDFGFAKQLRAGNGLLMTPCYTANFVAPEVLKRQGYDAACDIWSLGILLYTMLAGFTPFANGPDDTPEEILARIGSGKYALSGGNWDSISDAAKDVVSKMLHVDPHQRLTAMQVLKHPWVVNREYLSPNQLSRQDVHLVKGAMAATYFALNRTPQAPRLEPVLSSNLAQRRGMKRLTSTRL

[5] = molecular target: Calcium/calmodulin-dependent protein kinase type 1G (Homo sapiens) (UniProt Q96NX5); assay: Inhibition of human CAMK1g assessed as enzyme activity at 1 uM using KKALRRQETVDAL as substrate preincubated for 20 mins followed by [gamma-33P]-ATP addition and measured after 120 mins by radiometric Hot-SpotSM Kinase assay relative to control
Calcium/calmodulin-dependent protein kinase type 1G (Homo sapiens), sequence (Q96NX5 whole entry): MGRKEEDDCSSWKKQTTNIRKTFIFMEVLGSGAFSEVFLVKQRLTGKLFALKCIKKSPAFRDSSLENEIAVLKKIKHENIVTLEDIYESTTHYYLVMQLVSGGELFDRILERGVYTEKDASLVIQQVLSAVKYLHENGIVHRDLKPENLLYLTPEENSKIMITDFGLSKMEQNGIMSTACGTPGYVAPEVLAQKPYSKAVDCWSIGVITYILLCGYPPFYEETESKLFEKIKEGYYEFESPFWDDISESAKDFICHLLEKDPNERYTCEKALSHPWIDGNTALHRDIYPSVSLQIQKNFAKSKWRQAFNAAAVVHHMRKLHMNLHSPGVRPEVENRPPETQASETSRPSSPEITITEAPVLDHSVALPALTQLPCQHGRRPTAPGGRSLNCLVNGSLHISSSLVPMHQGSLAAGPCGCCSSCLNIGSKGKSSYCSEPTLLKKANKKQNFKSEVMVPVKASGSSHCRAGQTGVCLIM

[6] = molecular target: Serine/threonine-protein kinase 33 (Homo sapiens) (UniProt Q9BYT3); assay: Inhibition of human STK33 assessed as enzyme activity at 1 uM using myelin basic protein as substrate preincubated for 20 mins followed by [gamma-33P]-ATP addition and measured after 120 mins by radiometric Hot-SpotSM Kinase assay relative to control
Serine/threonine-protein kinase 33 (Homo sapiens), sequence (Q9BYT3 whole entry, looked up): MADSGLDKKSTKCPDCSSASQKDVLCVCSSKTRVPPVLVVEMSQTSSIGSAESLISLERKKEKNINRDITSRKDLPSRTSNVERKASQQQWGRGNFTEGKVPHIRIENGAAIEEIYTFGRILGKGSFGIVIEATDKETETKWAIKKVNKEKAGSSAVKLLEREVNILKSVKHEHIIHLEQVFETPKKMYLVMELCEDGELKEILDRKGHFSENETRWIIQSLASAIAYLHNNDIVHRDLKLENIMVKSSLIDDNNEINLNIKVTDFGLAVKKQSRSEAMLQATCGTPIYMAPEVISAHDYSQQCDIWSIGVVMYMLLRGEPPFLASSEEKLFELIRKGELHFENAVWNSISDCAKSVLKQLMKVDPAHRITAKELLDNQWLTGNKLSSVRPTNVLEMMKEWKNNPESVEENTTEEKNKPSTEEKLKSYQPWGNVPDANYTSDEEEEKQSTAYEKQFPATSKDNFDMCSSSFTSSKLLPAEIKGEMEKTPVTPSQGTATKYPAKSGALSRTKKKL

[7] = molecular target: T1, Protein kinase C iota type (Homo sapiens) (UniProt P41743); assay: Inhibition of human PKCiota assessed as enzyme activity at 1 uM using ERMRPRKRQGSVRRRV as substrate preincubated for 20 mins followed by [gamma-33P]-ATP addition and measured after 120 mins by radiometric Hot-SpotSM Kinase assay relative to control
T1 sequence (whole entry): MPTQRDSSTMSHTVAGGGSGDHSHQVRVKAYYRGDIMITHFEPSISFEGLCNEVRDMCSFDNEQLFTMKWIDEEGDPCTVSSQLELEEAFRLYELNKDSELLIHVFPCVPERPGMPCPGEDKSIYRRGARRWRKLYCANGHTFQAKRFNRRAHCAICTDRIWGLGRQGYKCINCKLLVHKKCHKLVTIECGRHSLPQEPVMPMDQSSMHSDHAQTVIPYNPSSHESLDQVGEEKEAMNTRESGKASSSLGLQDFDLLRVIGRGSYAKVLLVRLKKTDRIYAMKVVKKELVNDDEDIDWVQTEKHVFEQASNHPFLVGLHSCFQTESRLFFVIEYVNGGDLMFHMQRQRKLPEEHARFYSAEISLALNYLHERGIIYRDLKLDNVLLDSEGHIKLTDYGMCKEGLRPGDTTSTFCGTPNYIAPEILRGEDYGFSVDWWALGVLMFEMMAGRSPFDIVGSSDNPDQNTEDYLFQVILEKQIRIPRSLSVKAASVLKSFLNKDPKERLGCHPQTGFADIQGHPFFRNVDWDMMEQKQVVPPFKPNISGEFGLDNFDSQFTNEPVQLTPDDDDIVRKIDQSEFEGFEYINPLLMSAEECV

[8] = molecular target: T2, Serine/threonine-protein kinase TAO3 (Homo sapiens) (UniProt Q9H2K8); assay: Inhibition of human TAOK3 assessed as enzyme activity at 1 uM using myelin basic protein as substrate preincubated for 20 mins followed by [gamma-33P]-ATP addition and measured after 120 mins by radiometric Hot-SpotSM Kinase assay relative to control
T2 sequence (whole entry): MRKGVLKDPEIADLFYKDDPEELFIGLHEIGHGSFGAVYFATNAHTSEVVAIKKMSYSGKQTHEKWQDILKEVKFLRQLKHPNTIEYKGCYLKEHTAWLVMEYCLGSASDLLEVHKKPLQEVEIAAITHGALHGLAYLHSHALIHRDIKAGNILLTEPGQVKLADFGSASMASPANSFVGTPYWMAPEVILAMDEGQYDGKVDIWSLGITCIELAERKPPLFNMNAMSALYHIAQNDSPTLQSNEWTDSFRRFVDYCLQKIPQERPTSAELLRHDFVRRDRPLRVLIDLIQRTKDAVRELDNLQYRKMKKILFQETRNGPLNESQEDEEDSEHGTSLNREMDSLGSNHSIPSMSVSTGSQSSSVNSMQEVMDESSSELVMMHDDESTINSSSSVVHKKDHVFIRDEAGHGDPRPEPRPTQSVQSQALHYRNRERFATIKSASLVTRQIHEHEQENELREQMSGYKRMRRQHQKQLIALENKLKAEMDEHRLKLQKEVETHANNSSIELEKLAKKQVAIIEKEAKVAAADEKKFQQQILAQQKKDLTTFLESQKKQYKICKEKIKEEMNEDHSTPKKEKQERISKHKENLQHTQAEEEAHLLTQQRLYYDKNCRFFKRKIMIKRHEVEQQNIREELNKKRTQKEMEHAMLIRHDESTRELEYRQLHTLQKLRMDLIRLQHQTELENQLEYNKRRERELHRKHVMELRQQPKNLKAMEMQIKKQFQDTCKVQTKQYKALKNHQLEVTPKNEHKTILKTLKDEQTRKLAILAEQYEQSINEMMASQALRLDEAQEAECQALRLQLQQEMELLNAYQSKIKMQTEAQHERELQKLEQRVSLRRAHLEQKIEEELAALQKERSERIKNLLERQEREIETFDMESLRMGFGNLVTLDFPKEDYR

[9] = molecular target: Tyrosine-protein kinase Lyn (Homo sapiens) (UniProt P07948); assay: Inhibition of human LYN B assessed as enzyme activity at 1 uM using poly[Glu:Tyr] (4:1) as substrate preincubated for 20 mins followed by [gamma-33P]-ATP addition and measured after 120 mins by radiometric Hot-SpotSM Kinase assay relative to control
Tyrosine-protein kinase Lyn (Homo sapiens), sequence (P07948 2-512 limits assumed): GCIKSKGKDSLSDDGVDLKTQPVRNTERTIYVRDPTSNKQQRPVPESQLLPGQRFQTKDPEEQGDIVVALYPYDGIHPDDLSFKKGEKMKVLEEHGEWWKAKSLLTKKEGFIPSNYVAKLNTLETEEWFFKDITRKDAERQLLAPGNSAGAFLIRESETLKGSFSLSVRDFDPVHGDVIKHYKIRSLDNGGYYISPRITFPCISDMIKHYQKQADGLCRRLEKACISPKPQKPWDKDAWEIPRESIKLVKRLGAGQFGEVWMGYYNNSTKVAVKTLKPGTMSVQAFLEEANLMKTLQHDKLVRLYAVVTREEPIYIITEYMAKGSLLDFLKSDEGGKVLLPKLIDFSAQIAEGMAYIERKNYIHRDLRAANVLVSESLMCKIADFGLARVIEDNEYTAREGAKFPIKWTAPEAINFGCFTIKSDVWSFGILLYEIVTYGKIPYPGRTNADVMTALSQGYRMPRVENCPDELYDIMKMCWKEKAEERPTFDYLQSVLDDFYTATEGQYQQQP

[10] = molecular target: Interleukin-1 receptor-associated kinase 1 (Homo sapiens) (UniProt P51617); assay: Inhibition of human IRAK1 assessed as enzyme activity at 1 uM using myelin basic protein as substrate preincubated for 20 mins followed by [gamma-33P]-ATP addition and measured after 120 mins by radiometric Hot-SpotSM Kinase assay relative to control
Interleukin-1 receptor-associated kinase 1 (Homo sapiens), sequence (P51617 whole entry, looked up): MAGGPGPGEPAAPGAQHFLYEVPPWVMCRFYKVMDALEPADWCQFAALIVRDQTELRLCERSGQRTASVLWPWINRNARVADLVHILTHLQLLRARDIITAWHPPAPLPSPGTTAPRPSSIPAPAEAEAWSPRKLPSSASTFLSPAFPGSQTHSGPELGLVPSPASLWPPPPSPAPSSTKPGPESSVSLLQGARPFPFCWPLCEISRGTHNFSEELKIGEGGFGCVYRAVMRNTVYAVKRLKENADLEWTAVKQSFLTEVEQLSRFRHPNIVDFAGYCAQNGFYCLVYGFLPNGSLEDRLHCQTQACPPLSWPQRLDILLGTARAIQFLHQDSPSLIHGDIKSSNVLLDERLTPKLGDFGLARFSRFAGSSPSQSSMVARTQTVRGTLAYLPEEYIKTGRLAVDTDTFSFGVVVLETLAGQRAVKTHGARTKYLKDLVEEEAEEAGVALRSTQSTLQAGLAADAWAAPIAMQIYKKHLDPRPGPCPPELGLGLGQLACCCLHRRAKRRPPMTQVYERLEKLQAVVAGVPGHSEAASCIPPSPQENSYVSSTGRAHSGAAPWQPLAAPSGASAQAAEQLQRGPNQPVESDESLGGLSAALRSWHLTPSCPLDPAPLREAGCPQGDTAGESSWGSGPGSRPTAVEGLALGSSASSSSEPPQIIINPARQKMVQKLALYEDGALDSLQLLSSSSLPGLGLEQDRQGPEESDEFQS

[11] = molecular target: Tyrosine-protein kinase CSK (Homo sapiens) (UniProt P41240); assay: Inhibition of human CSK assessed as enzyme activity at 1 uM using poly[Glu:Tyr] (4:1) as substrate preincubated for 20 mins followed by [gamma-33P]-ATP addition and measured after 120 mins by radiometric Hot-SpotSM Kinase assay relative to control
Tyrosine-protein kinase CSK (Homo sapiens), sequence (P41240 2-450 limits assumed): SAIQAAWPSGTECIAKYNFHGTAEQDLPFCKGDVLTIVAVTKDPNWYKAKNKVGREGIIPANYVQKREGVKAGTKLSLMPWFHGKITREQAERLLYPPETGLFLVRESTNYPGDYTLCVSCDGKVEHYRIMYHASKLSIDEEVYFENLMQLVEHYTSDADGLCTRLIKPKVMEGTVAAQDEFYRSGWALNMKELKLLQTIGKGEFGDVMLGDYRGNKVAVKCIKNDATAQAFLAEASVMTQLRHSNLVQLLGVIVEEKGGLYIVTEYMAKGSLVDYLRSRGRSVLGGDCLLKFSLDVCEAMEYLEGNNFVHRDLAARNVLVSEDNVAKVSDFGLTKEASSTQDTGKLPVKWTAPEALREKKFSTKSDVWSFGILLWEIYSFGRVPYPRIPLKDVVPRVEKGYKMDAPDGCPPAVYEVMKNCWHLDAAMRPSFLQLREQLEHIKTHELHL

Casein kinase I isoform alpha (Homo sapiens), sequence (P48729 2-337 limits assumed): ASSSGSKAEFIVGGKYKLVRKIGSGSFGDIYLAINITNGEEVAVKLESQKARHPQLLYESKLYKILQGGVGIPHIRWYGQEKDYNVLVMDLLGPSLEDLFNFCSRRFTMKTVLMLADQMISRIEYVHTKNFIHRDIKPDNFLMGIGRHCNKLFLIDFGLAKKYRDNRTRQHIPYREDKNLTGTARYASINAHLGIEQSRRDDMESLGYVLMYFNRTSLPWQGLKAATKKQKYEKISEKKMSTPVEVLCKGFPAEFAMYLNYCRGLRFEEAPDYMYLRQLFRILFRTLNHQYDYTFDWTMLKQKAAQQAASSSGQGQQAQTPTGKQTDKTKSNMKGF

SMILES | Activity [1] [%] | Activity [2] [%] | Activity [3] [%] | Activity [4] [%] | Activity [5] [%] | Activity [6] [%] | Activity [7] [%] | Activity [8] [%] | Activity [9] [%] | Activity [10] [%] | Activity [11] [%]
C[C@H](Nc1ncnc2nc[nH]c12)c1cc2cccc(Cl)c2c(=O)n1-c1ccccc1 | 111 | 107 | 106 | 94.1 | 99.1 | 101 | 98.2 | 106 | 102 | 102 | 97.9
CC[C@H](Nc1ncnc2[nH]cnc12)c1nc2cccc(F)c2c(=O)n1-c1ccccc1 | 107 | 103 | 97.3 | 98.3 | 102 | 101 | 94 | 98.6 | 97.8 | 106 | 99.1
CC(C)Oc1ccc(-c2nn([C@@H](C)c3oc4ccc(F)cc4c(=O)c3-c3cccc(F)c3)c3ncnc(N)c23)cc1F [UMBRALISIB] | 111 | 116 | 103 | 101 | 98.9 | 106 | 95.7 | 106 | 104 | 105 | 94.1

Source: ChEMBL document CHEMBL5715954, “Silencing c-Myc translation as a therapeutic strategy through targeting PI3Kδ and CK1ε in hematological malignancies” (Blood, 2017)
